The NIST ThermoML archive (doi:10.1021/acs.jced.6b00181)
± gives the expanded uncertainty stated by the source.

Test: xn = mol fraction of the nth substance listed
Conditions: Liquid, Other PVT measurement

C=CC [propene] + CCCCCC
Conditions	mass density [kg/m3]
295.6 K, 55300 kPa, x1 = 0.1414	688.2 ± 5.5
295.6 K, 55600 kPa, x1 = 0.1414	688.2 ± 5.5
295.6 K, 58000 kPa, x1 = 0.1414	689.8 ± 5.6
295.6 K, 58400 kPa, x1 = 0.8985	594.2 ± 4.8
295.6 K, 61800 kPa, x1 = 0.8985	596.6 ± 4.8
295.6 K, 61900 kPa, x1 = 0.1414	692.5 ± 5.6
295.6 K, 66100 kPa, x1 = 0.1414	695.3 ± 5.6
295.6 K, 66200 kPa, x1 = 0.1414	695.3 ± 5.6
295.6 K, 67300 kPa, x1 = 0.8985	601.4 ± 4.8
324.4 K, 900 kPa, x1 = 0.4466	560.3 ± 4.5
324.4 K, 1400 kPa, x1 = 0.4466	561.7 ± 4.5
324.4 K, 1900 kPa, x1 = 0.4466	562.5 ± 4.6
324.4 K, 2100 kPa, x1 = 0.4466	563.2 ± 4.6
324.4 K, 3400 kPa, x1 = 0.4466	565.5 ± 4.6
324.4 K, 4900 kPa, x1 = 0.4466	568.9 ± 4.6
324.4 K, 6800 kPa, x1 = 0.4466	571.9 ± 4.6
324.4 K, 10200 kPa, x1 = 0.4466	577.8 ± 4.7
324.4 K, 17200 kPa, x1 = 0.4466	588.5 ± 4.7
324.4 K, 23800 kPa, x1 = 0.4466	597.6 ± 4.8
324.4 K, 30700 kPa, x1 = 0.4466	606.1 ± 4.9
324.4 K, 37800 kPa, x1 = 0.4466	614 ± 4.9
324.4 K, 44700 kPa, x1 = 0.4466	620.3 ± 5
324.4 K, 51400 kPa, x1 = 0.4466	626.2 ± 5
324.4 K, 58300 kPa, x1 = 0.4466	631.8 ± 5.1
324.4 K, 63700 kPa, x1 = 0.4466	636 ± 5.1
324.4 K, 67500 kPa, x1 = 0.4466	638.9 ± 5.1
324.6 K, 700 kPa, x1 = 0.1414	611.8 ± 5
324.6 K, 1200 kPa, x1 = 0.1414	612.7 ± 5
324.6 K, 1300 kPa, x1 = 0.606	533.2 ± 4.4
324.6 K, 1800 kPa, x1 = 0.606	534.5 ± 4.3
324.6 K, 1900 kPa, x1 = 0.1414	614 ± 5
324.6 K, 2500 kPa, x1 = 0.606	536.2 ± 4.4
324.6 K, 3400 kPa, x1 = 0.606	538.3 ± 4.4
324.6 K, 3600 kPa, x1 = 0.1414	616.6 ± 5
324.6 K, 5000 kPa, x1 = 0.1414	618.8 ± 5
324.6 K, 5300 kPa, x1 = 0.606	542.5 ± 4.4
324.6 K, 6800 kPa, x1 = 0.606	545.6 ± 4.4
324.6 K, 7100 kPa, x1 = 0.1414	621.9 ± 5
324.6 K, 8900 kPa, x1 = 0.1414	624.1 ± 5
324.6 K, 9600 kPa, x1 = 0.1414	625.5 ± 5.1
324.6 K, 10300 kPa, x1 = 0.1414	625.9 ± 5.1
324.6 K, 10300 kPa, x1 = 0.606	552.4 ± 4.5
324.6 K, 12300 kPa, x1 = 0.1414	628.6 ± 5.1
324.6 K, 13600 kPa, x1 = 0.1414	630 ± 5.1
324.6 K, 17100 kPa, x1 = 0.1414	634.1 ± 5.1
324.6 K, 17400 kPa, x1 = 0.606	564.6 ± 4.6
324.6 K, 19700 kPa, x1 = 0.1414	637.3 ± 5.1
324.6 K, 23900 kPa, x1 = 0.606	573.8 ± 4.6
324.6 K, 24100 kPa, x1 = 0.1414	642 ± 5.2
324.6 K, 27400 kPa, x1 = 0.1414	644.9 ± 5.2
324.6 K, 30700 kPa, x1 = 0.1414	648.2 ± 5.2
324.6 K, 30700 kPa, x1 = 0.606	583.4 ± 4.7
324.6 K, 34300 kPa, x1 = 0.1414	651.6 ± 5.3
324.6 K, 37500 kPa, x1 = 0.1414	654.6 ± 5.3
324.6 K, 37900 kPa, x1 = 0.606	592.4 ± 4.8
324.6 K, 44300 kPa, x1 = 0.1414	660.5 ± 5.3
324.6 K, 44400 kPa, x1 = 0.606	599.1 ± 4.8
324.6 K, 47800 kPa, x1 = 0.1414	663.5 ± 5.3
324.6 K, 51300 kPa, x1 = 0.1414	666.6 ± 5.4
324.6 K, 51400 kPa, x1 = 0.606	606.4 ± 4.9
324.6 K, 55200 kPa, x1 = 0.1414	669.7 ± 5.4
324.6 K, 58100 kPa, x1 = 0.606	612.2 ± 4.9
324.6 K, 58400 kPa, x1 = 0.1414	672.2 ± 5.4
324.6 K, 62700 kPa, x1 = 0.1414	675.4 ± 5.4
324.6 K, 63000 kPa, x1 = 0.606	616.2 ± 5
324.6 K, 66500 kPa, x1 = 0.1414	678.5 ± 5.5
324.6 K, 67200 kPa, x1 = 0.606	619.4 ± 5
325.1 K, 2100 kPa, x1 = 0.9003	470.3 ± 3.9
325.1 K, 2800 kPa, x1 = 0.9003	473.5 ± 4.1
325.1 K, 3700 kPa, x1 = 0.9003	476.8 ± 4
325.1 K, 7000 kPa, x1 = 0.9003	489.5 ± 4
325.1 K, 10400 kPa, x1 = 0.9003	499.8 ± 4.1
325.1 K, 16500 kPa, x1 = 0.9003	515.1 ± 4.2
325.1 K, 24000 kPa, x1 = 0.9003	530.6 ± 4.3
325.1 K, 30900 kPa, x1 = 0.9003	542.4 ± 4.4
325.1 K, 37500 kPa, x1 = 0.9003	551.5 ± 4.4
325.1 K, 44500 kPa, x1 = 0.9003	559.6 ± 4.5
325.1 K, 51500 kPa, x1 = 0.9003	567.6 ± 4.6
325.1 K, 58300 kPa, x1 = 0.9003	574.5 ± 4.6
325.1 K, 63700 kPa, x1 = 0.9003	580.2 ± 4.7
325.1 K, 67200 kPa, x1 = 0.9003	583.3 ± 4.7
325.5 K, 2400 kPa, x1 = 0.8985	471.9 ± 3.9
325.5 K, 2800 kPa, x1 = 0.8985	474.2 ± 4
325.5 K, 3500 kPa, x1 = 0.8985	476.7 ± 3.9
325.5 K, 4700 kPa, x1 = 0.8985	481.2 ± 4
